One test deals with T1, SETD2(1434-1711) (Homo sapiens, UniProt Q9BYW2).
T1 construct: SETD2 (1434-1711) Assay; catalogue N/A
T1 sequence (Q9BYW2 1434-1711): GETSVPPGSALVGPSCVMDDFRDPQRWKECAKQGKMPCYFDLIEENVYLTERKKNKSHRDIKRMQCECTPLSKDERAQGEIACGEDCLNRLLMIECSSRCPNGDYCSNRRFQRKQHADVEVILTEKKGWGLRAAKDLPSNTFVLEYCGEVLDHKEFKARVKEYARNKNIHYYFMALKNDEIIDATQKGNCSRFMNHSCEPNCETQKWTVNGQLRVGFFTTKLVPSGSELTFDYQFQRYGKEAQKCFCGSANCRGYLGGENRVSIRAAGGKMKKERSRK
The experiment in a line: SETD2 (1434-1711) assay. Type of test: biochemical. The conditions noted are these: read-out: SETD2 (1434-1711).

Another test concerns H3K36me3 in A549 cells. Briefly: In-Cell Western (ICW) assay of SETD2 inhibitors (A549 assay). In kind it is cell-based, human. The conditions noted are these: A549 cells, read-out: SETD2 A549. The procedure, abridged:
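A549 cells seeded at 4,000/well onto compound and incubated 3 days at 37° C. Methanol-fixed cells stained overnight at 4° C with anti-H3K36me3 (1:1000), then IRDye 800CW secondary with DRAQ5 DNA counterstain. Plates read by Licor imaging at 700 and 800 channels.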

Like-named read-outs stand apart in the source and are kept apart here.

With `Cc1cccnc1C(NC(=O)c1cc2c(CO)ccc(C)c2[nH]1)C1CC1` (stereo not shown) [compound 606], the IC50 at SETD2(1434-1711) is above 50000 nM; in the test with H3K36me3 in A549 cells, above 25000 nM.
Turning to `CC(=O)N1CCN([C@@H]2C[C@@H](NC(=O)c3cc4c(F)ccc(C)c4[nH]3)CN(C)C2)CC1` [compound 1108], the figures for the IC50 at SETD2(1434-1711) and in the test with H3K36me3 in A549 cells (Homo sapiens) were above 10000 nM and above 2000 nM, respectively.
Turning to `Cc1ccc(F)c2cc(C(=O)NC3CCCC(N4CCC5(CC4)COC(=O)N5)C3)[nH]c12` (stereo not shown) [compound 964], the IC50 at SETD2(1434-1711) was 500 nM; in the test with H3K36me3 in A549 cells, above 2000 nM.
Consider `CC(=O)N1CCN([C@H]2CCC[C@@H](NC(=O)c3cc4c(F)ccc(C)c4[nH]3)C2)CC1C` (stereo partly shown) [compound 906], for which the IC50 at SETD2(1434-1711) and in the test on H3K36me3 in A549 cells (Homo sapiens) was 10 nM in each case.
`Cc1cccc2cc(C(=O)Nc3ccc4cnccc4c3)[nH]c12` [compound 437]: the IC50 at SETD2(1434-1711) amounted to 600 nM; in the test with H3K36me3 in A549 cells, 4800 nM.
The corresponding values for `Cc1ccc(F)c2cc(C(=O)Nc3cccc(N4CCN(C5CC5)c5ccccc54)c3)[nH]c12` [compound 555] are 9200 nM and above 25000 nM.
For `CC(=O)N1CCC12CN(C1CCCC(NC(=O)c3cc4c(F)ccc(C)c4[nH]3)C1)C2` (stereo not shown) [compound 950], the results for the IC50 at SETD2(1434-1711) and with H3K36me3 in A549 cells were 400 nM and above 2000 nM, respectively.
For the molecule `CC(=O)N1CCN(C2CCN(c3cc(F)cc(NC(=O)c4cc5c(F)ccc(C)c5[nH]4)c3)C2)CC1` (stereo not shown) [compound 9], the results for the IC50 on SETD2(1434-1711) and with H3K36me3 in A549 cells were 8 nM and 40 nM, respectively.
As for `CC(=O)N1CCC2C1CCN2c1cc(F)cc(NC(=O)c2cc3c(F)ccc(C)c3[nH]2)c1` (stereo not shown) [compound 13], the results for the IC50 at SETD2(1434-1711) and with H3K36me3 in A549 cells were 10 nM and 50 nM, respectively.
The corresponding values for `Cc1ccc(=O)[nH]c1C(NC(=O)c1cc2cccc(C)c2[nH]1)C1CC1` (stereo not shown) [compound 506] are 4900 nM and 15100 nM.
`Cc1ccc(F)c2cc(C(=O)Nc3cc(Cl)cc(CN4CCOCC4)c3)[nH]c12` [compound 333]: the IC50 on SETD2(1434-1711) was determined as 300 nM; in the test on H3K36me3 in A549 cells, 1600 nM.
As for `CC(=O)N1CCN([C@@H]2CCC[C@@H](NC(=O)c3cc4c(F)ccc(C)c4[nH]3)C2)[C@@H](C)C1` [compound 1074], the IC50 at SETD2(1434-1711) was 4500 nM; in the test with H3K36me3 in A549 cells (Homo sapiens), above 2000 nM.
On to `Cc1ccc(F)c2cc(C(=O)Nc3cc(F)cc(N4CCC(N5CCN(CC(N)=O)CC5)C4)c3)[nH]c12` (stereo not shown) [compound 6], for which the IC50 at SETD2(1434-1711) worked out at 6 nM; in the test on H3K36me3 in A549 cells it was 40 nM.
For `Cc1ccc(F)c2cc(C(=O)Nc3cccc(N4CCN(C)C4=O)c3)[nH]c12` [compound 191], the IC50 on SETD2(1434-1711) was 30 nM; with H3K36me3 in A549 cells (Homo sapiens), 400 nM.
The corresponding values for `Cc1cccc2cc(C(=O)NC3CCC(NC(=O)CCN)C3)[nH]c12` (stereo not shown) [compound 600] are above 50000 nM and above 25000 nM.
On to `Cc1ccc(F)c2cc(C(=O)Nc3cccc(N4CC5CCCNC5C4)c3)[nH]c12` (stereo not shown) [compound 124], for which the values for the IC50 on SETD2(1434-1711) and with H3K36me3 in A549 cells (Homo sapiens) were 7 nM and 300 nM, respectively.
The corresponding values for `Cc1cccc2cc(C(=O)NC3CN(C(=O)CCCN)C3)[nH]c12` [compound 594] are above 50000 nM and above 25000 nM.
As to `Cc1ccc(F)c2cc(C(=O)Nc3cccc(N4CC5CN(C)CC5C4)c3)[nH]c12` (stereo not shown) [compound 165], the IC50 at SETD2(1434-1711) amounted to 10 nM; in the test with H3K36me3 in A549 cells (Homo sapiens) it was 300 nM.
The like results for `Cc1cccnc1C(NC(=O)c1cc2cccc(C)c2[nH]1)C1CCCC1` (stereo not shown) [compound 563] were, in that order, 10100 nM and above 25000 nM.
The corresponding values for `Cc1ccc(F)c2cc(C(=O)Nc3cc(F)cc4cnccc34)[nH]c12` [Cpd. No. 82, 4-fluoro-N-(7-fluoroisoquinolin-5-yl)-7-methyl-1H-indole-2-carboxamide] are 40 nM and 200 nM.
In the case of `CC(=O)N(C)CCCN1CCCC(NC(=O)c2cc3c(F)ccc(C)c3[nH]2)C1` (stereo not shown) [compound 389], the IC50 was above 10000 nM at SETD2(1434-1711) and above 2000 nM with H3K36me3 in A549 cells.
The like results for `Cc1ccc(F)c2cc(C(=O)Nc3cccc([C@H]4CC[C@H](N(C)C)CC4)c3)[nH]c12` [compound 68] were, in that order, 6 nM and 200 nM.
The corresponding values for `Cc1ccc(F)c2cc(C(=O)NC3CCCC(N4CCN5C(=O)NCC5C4)C3)[nH]c12` (stereo not shown) [compound 1084] are 100 nM and 500 nM.
Regarding `Cc1ccc(F)c2cc(C(=O)Nc3cccc(N4CCOC(C5CC5)C4)c3)[nH]c12` (stereo not shown) [compound 143], the values for the IC50 on SETD2(1434-1711) and with H3K36me3 in A549 cells (Homo sapiens) were 60 nM and 300 nM, respectively.
The corresponding values for `Cc1cccnc1C(Cc1cnn(C)c1)NC(=O)c1cc2c(F)ccc(C)c2[nH]1` (stereo not shown) [Cpd. No. 85, 4-fluoro-7-methyl-N-(2-(1-methyl-1H-pyrazol-4-yl)-1-(3-methylpyridin-2-yl)ethyl)-1H-indole-2-carboxamide] are 40 nM and 200 nM.
For the molecule `Cc1ccc(F)c2cc(C(=O)Nc3cccc(N4CCN(C(=O)CF)CC4)c3)[nH]c12` [compound 92], the IC50 is 30 nM at SETD2(1434-1711) and 200 nM in the test with H3K36me3 in A549 cells.
For the molecule `Cc1cccc2cc(C(=O)NC(c3ncccc3Cl)C3CC3)[nH]c12` (stereo not shown) [compound 419], the IC50 at SETD2(1434-1711) came out at 800 nM; in the test on H3K36me3 in A549 cells (Homo sapiens), 3400 nM.
The like results for `CC(=O)N1CCN([C@@H]2CCC[C@@H](NC(=O)c3cc4c(F)ccc(C)c4[nH]3)C2)C[C@H]1C` [compound 931] were, in that order, 1100 nM and above 2000 nM.
For `CCC(=O)N1CCN([C@@H]2CCC[C@@H](NC(=O)c3cc4c(F)ccc(C)c4[nH]3)C2)CC1` [compound 840], the IC50 at SETD2(1434-1711) is 900 nM; with H3K36me3 in A549 cells, above 2000 nM.
`CC(=O)N1CCN(C[C@H]2CCC[C@@H](NC(=O)c3cc4c(F)ccc(C)c4[nH]3)C2)CC1` [compound 1032]: the IC50 came to 200 nM at SETD2(1434-1711) and 400 nM in the test on H3K36me3 in A549 cells (Homo sapiens).
For `Cc1ccc(F)c2cc(C(=O)Nc3cccc(N4CCC(NCCO)CC4)c3)[nH]c12` [compound 210], the IC50 on SETD2(1434-1711) came out at 30 nM; with H3K36me3 in A549 cells, 400 nM.
The like results for `CC(=O)N1CCN(C2CCCC(NC(=O)c3cc4c(F)ccc(C)c4[nH]3)C2)C2(CC2)C1` (stereo not shown) [compound 1137] were, in that order, 2000 nM and above 2000 nM.
In the case of `Cc1cccc2cc(C(=O)Nc3ccc4ccc(CN5CCN(C)CC5)cc4c3)[nH]c12` [compound 453], the IC50 is 700 nM at SETD2(1434-1711) and 5800 nM in the test on H3K36me3 in A549 cells (Homo sapiens).
The corresponding values for `Cc1ccc(F)c2cc(C(=O)N[C@@H]3CCC[C@@H](N4CCN5C(=O)OCC5C4)C3)[nH]c12` (stereo partly shown) [compound 866] are 900 nM and above 2000 nM.
In the case of `Cc1ccc(F)c2cc(C(=O)Nc3cccc(N4CCC5(CCN(CC(F)F)C5)CC4)c3)[nH]c12` [compound 206], the IC50 at SETD2(1434-1711) amounted to 90 nM; with H3K36me3 in A549 cells it was 400 nM.
The corresponding values for `CNC(=C[N+](=O)[O-])N1CCN(C2CCCC(NC(=O)c3cc4c(F)ccc(C)c4[nH]3)C2)CC1` (stereo not shown) [compound 1169] are 900 nM and above 2000 nM.
The like results for `Cc1nnc(C2CCCC(NC(=O)c3cc4c(F)ccc(C)c4[nH]3)C2)o1` (stereo not shown) [compound 976] were, in that order, 6600 nM and above 2000 nM.
In the case of `Cc1ccc(F)c2cc(C(=O)Nc3cc(Cl)cc(-c4cncnc4)c3)[nH]c12` [compound 145], the IC50 on SETD2(1434-1711) amounted to 30 nM; with H3K36me3 in A549 cells (Homo sapiens), 300 nM.
`Cc1ccc(F)c2cc(C(=O)NC3CCCC(N4CCC5(CC4)COC(=O)N5)C3)[nH]c12` (stereo not shown) [compound 963]: the IC50 on SETD2(1434-1711) worked out at 20 nM; with H3K36me3 in A549 cells, 600 nM.
Turning to `Cc1ccc(F)c2cc(C(=O)Nc3cccc(-c4cccn5nccc45)c3)[nH]c12` [compound 235], the IC50 on SETD2(1434-1711) stood at 100 nM; in the test with H3K36me3 in A549 cells (Homo sapiens), 500 nM.
The like results for `Cc1ccc(F)c2cc(C(=O)N[C@@H]3CCCN(C4CCN(C(=O)CN(C)C)CC4)C3)[nH]c12` [compound 891] were, in that order, 900 nM and above 2000 nM.
`Cc1ccc(F)c2cc(C(=O)Nc3cccc(N4CCN(C(=O)c5cccnc5)CC4)c3)[nH]c12` [compound 49]: the IC50 at SETD2(1434-1711) came to 30 nM; in the test with H3K36me3 in A549 cells, 100 nM.
With `CCN(CC)C1CCc2cc(NC(=O)c3cc4cccc(C)c4[nH]3)ccc2C1` (stereo not shown) [compound 537], the figures for the IC50 on SETD2(1434-1711) and in the test with H3K36me3 in A549 cells (Homo sapiens) were 900 nM and above 25000 nM, respectively.
The like results for `Cc1cccnc1C(NC(=O)c1cc2cccc(CO)c2[nH]1)C1CC1` (stereo not shown) [compound 574] were, in that order, 17300 nM and above 25000 nM.
The like results for `Cc1cccnc1C(Cc1cn(CC2CC2)cn1)NC(=O)c1cc2c(F)ccc(C)c2[nH]1` (stereo not shown) [compound 356] were, in that order, 600 nM and above 2000 nM.
As to `Cc1ccc(F)c2cc(C(=O)Nc3cccc(N4CCNC(=O)C4)c3)[nH]c12` [compound 147], the IC50 is 30 nM on SETD2(1434-1711) and 300 nM with H3K36me3 in A549 cells (Homo sapiens).
The like results for `Cc1ccc(F)c2cc(C(=O)NC3C(=O)NCCc4cccnc43)[nH]c12` (stereo not shown) [compound 361] were, in that order, 1300 nM and above 2000 nM.
As for `Cc1cccnc1C(CCC(=O)N1CCNCC1)NC(=O)c1cc2cccc(C)c2[nH]1` (stereo not shown) [compound 572], the figures for the IC50 at SETD2(1434-1711) and in the test with H3K36me3 in A549 cells (Homo sapiens) were 16600 nM and above 25000 nM, respectively.
As to `Cc1ccc(F)c2cc(C(=O)NC3CCCC(N4CCCN(C)C(=O)C4)C3)[nH]c12` (stereo not shown) [compound 370], the IC50 on SETD2(1434-1711) is 6800 nM; in the test on H3K36me3 in A549 cells, above 2000 nM.
On to `Cc1ccc(F)c2cc(C(=O)Nc3cccc(NC(=O)C4CCCN4)c3)[nH]c12` (stereo not shown) [compound 314], for which the IC50 on SETD2(1434-1711) was found to be 40 nM; in the test with H3K36me3 in A549 cells (Homo sapiens) it was 1300 nM.
